Legend:
[1] = test system: MDA-MB-231; assay: Antiproliferative activity against human MDA-MB-231 cells after 48 hrs by MTT assay; format: functional, cell-based; details: MDA-MB-231, 48 h
[2] = test system: MCF7; assay: Antiproliferative activity against human MCF7 cells after 48 hrs by MTT assay; format: functional, cell-based; details: MCF7, 48 h
[3] = test system: HepG2; assay: Antiproliferative activity against human HepG2 cells after 48 hrs by MTT assay; format: functional, cell-based; details: HepG2, 48 h
[4] = test system: SK-HEP1; assay: Antiproliferative activity against human SKHEP1 cells after 48 hrs by MTT assay; format: functional, cell-based; details: SK-HEP1, 48 h
[5] = Drug localization in human HepG2 cells at 10 uM after 2 hrs by confocal laser scanning microscopic analysis; format: ADME, cell-based; details: hepg2, 2 h
[6] = Drug localization in mitochondria of human HepG2 cells at 10 uM after 30 mins by Rh123 green dye-based confocal laser scanning microscopic analysis; format: ADME; details: 0.5 h

Row | Compound | IC50 [1] | IC50 [2] | IC50 [3] | IC50 [4] | Drug uptake [5] | Drug uptake [6]
1 | C[C@]12CC[C@@H]3[C@]4(C=C[C@]5(C[C@@H](O)CC[C@]35C)OO4)[C@@H]1CC/C2=N\OCC(=O)Nc1ccc(Br)cc1 | 37.5 µM | 40.3 µM | 29.9 µM | 24.4 µM | – | –
2 | C[C@]12CC[C@@H]3[C@]4(C=C[C@]5(C[C@@H](O)CC[C@]35C)OO4)[C@@H]1CC/C2=N\OCC(=O)Nc1ccc(F)cc1 | 12.7 µM | 14.5 µM | 15.8 µM | 10.7 µM | – | –
3 | CC(C)c1ccc(NC(=O)CO/N=C2\CC[C@H]3[C@@]45C=C[C@]6(C[C@@H](O)CC[C@]6(C)[C@@H]4CC[C@]23C)OO5)cc1 | 15.8 µM | 20.4 µM | 12.1 µM | 14.6 µM | – | –
4 | Cc1ccc(NC(=O)CO/N=C2\CC[C@H]3C4=CC=C5C[C@@H](O)CC[C@]5(C)[C@H]4CC[C@]23C)cc1Cl | 29.2 µM | 34.3 µM | 17.8 µM | 19.8 µM | – | –
5 | C[C@]12CC[C@@H]3[C@]4(C=C[C@]5(C[C@@H](O)CC[C@]35C)OO4)[C@@H]1CC/C2=N\OCC(=O)Nc1cccc(F)c1 | 26.3 µM | 29.5 µM | 40.5 µM | 37.6 µM | – | –
6 | COc1ccc(NC(=O)CO/N=C2\CC[C@H]3[C@@]45C=C[C@]6(C[C@@H](O)CC[C@]6(C)[C@@H]4CC[C@]23C)OO5)cc1 | 46.4 µM | 52.2 µM | 49.5 µM | 41.4 µM | – | –
7 | CCN(CC)c1ccc2cc(C(=O)NCC(=O)OC3CC[C@]4(C)[C@@H]5CC[C@]6(C)/C(=N/OCC(=O)Nc7ccc(C(C)C)cc7)CC[C@H]6[C@@]56C=C[C@]4(C3)OO6)c(=O)oc2c1 (some centres undefined) | 7.22 µM | 9.64 µM | 8.4 µM | 7.52 µM | Active | Active
8 | Cc1cccc(NC(=O)CO/N=C2\CC[C@H]3[C@@]45C=C[C@]6(C[C@@H](O)CC[C@]6(C)[C@@H]4CC[C@]23C)OO5)c1 | 45.5 µM | 41.6 µM | 35.4 µM | 30.6 µM | – | –
9 | Cc1ccc(NC(=O)CO/N=C2\CC[C@H]3[C@@]45C=C[C@]6(C[C@@H](O)CC[C@]6(C)[C@@H]4CC[C@]23C)OO5)cc1Cl | 17.5 µM | 22.7 µM | 9.3 µM | 12.1 µM | – | –
10 | C[C@]12CC[C@@H]3[C@]4(C=C[C@]5(C[C@@H](O)CC[C@]35C)OO4)[C@@H]1CC/C2=N\OCC(=O)Nc1cccc(Cl)c1 | 29.5 µM | 34.4 µM | 15.4 µM | 22.8 µM | – | –
11 | C[C@]12CC[C@H](O)CC1=CC=C1[C@@H]2CC[C@]2(C)/C(=N/OCC(=O)Nc3ccccc3)CC[C@@H]12 | > 80 µM | > 80 µM | > 80 µM | 73.8 µM | – | –
12 | COc1cccc(NC(=O)CO/N=C2\CC[C@H]3C4=CC=C5C[C@@H](O)CC[C@]5(C)[C@H]4CC[C@]23C)c1 | 59.3 µM | > 80 µM | 70.6 µM | > 80 µM | – | –
13 | C[C@]12CC[C@H](O)CC1=CC=C1[C@@H]2CC[C@]2(C)/C(=N/OCC(=O)Nc3cccc(Cl)c3)CC[C@@H]12 | 33.5 µM | 42.1 µM | 22.7 µM | 26.6 µM | – | –
14 | C[C@]12CC[C@H](O)CC1=CC=C1[C@@H]2CC[C@]2(C)/C(=N/OCC(=O)Nc3cccc(C(F)(F)F)c3)CC[C@@H]12 | 19.4 µM | 21.3 µM | 14.4 µM | 16.5 µM | – | –
15 | COc1cccc(NC(=O)CO/N=C2\CC[C@H]3[C@@]45C=C[C@]6(C[C@@H](O)CC[C@]6(C)[C@@H]4CC[C@]23C)OO5)c1 | 57.3 µM | 43.2 µM | 44.9 µM | 50.2 µM | – | –
16 | C#Cc1cccc(NC(=O)CO/N=C2\CC[C@H]3[C@@]45C=C[C@]6(C[C@@H](O)CC[C@]6(C)[C@@H]4CC[C@]23C)OO5)c1 | 25.1 µM | 31.6 µM | 44.2 µM | 38.2 µM | – | –
17 | C[C@]12CC[C@@H]3[C@]4(C=C[C@]5(C[C@@H](O)CC[C@]35C)OO4)[C@@H]1CC/C2=N\OCC(=O)Nc1ccccc1 | 74.2 µM | > 80 µM | 48.3 µM | 60.4 µM | – | –
18 | C[C@]12CC[C@@H]3[C@]4(C=C[C@]5(C[C@@H](O)CC[C@]35C)OO4)[C@@H]1CC/C2=N\OCC(=O)Nc1ccc(F)c(Cl)c1 | 24.6 µM | 26.2 µM | 11.3 µM | 14.3 µM | – | –
19 | CC(C)[C@@H](C)/C=C/[C@@H](C)[C@H]1CC[C@@H]2[C@]1(C)CC[C@@H]1[C@]23C=C[C@]2(C[C@@H](O)CC[C@]12C)OO3 | 19.2 µM | 23.3 µM | 15.8 µM | 17.2 µM | – | –
20 | Cc1ccc(NC(=O)CO/N=C2\CC[C@H]3[C@@]45C=C[C@]6(C[C@@H](O)CC[C@]6(C)[C@@H]4CC[C@]23C)OO5)cc1 | > 80 µM | 62.2 µM | 38.3 µM | 46.3 µM | – | –
21 | C[C@]12CC[C@@H]3[C@]4(C=C[C@]5(C[C@@H](O)CC[C@]35C)OO4)[C@@H]1CC/C2=N\OCC(=O)Nc1ccc(Cl)cc1 | 14.2 µM | 19.5 µM | 14.8 µM | 11.1 µM | – | –
22 | C[C@]12CC[C@@H]3[C@]4(C=C[C@]5(C[C@@H](O)CC[C@]35C)OO4)[C@@H]1CC/C2=N\OCC(=O)Nc1cccc(C(F)(F)F)c1 | 20.4 µM | 23.1 µM | 13.5 µM | 15.6 µM | – | –
23 | CC(C)c1ccc(NC(=O)CO/N=C2\CC[C@H]3C4=CC=C5C[C@@H](O)CC[C@]5(C)[C@H]4CC[C@]23C)cc1 | 35 µM | 31.6 µM | 26.7 µM | 23.2 µM | – | –

Source: ChEMBL document CHEMBL4052725, “Synthesis and biological evaluation of novel steroidal 5α,8α-epidioxyandrost-6-ene-3β-ol-17-(O-phenylacetamide)oxime derivatives as potential anticancer agents” (Bioorg Med Chem Lett, 2017)
